# How the values were obtained:
# human orexin 2 receptor = human orexin 2 receptor (Homo sapiens (Human), UniProt O43614); experiment: Human orexin 2 receptor radioligand binding ([3H]-EMPA); conditions: HEK293 stably expressing human orexin 2 receptor; [3H]-EMPA; apparent Ki; read-out: hOX2 Ki
# Method: After centrifugation (2K×G, 5 min at 4° C.), the supernatant was aspirated and the pellets frozen and stored at −80° C. […] Each cell pellet from a 15 cm plate was resuspended in 10 mL, stored on ice, and homogenized for 45 sec just prior to addition to the reactions. Competition binding experiments in 96 well polypropylene plates were performed using [^3H]-EMPA (Moraveck Corporation, specific activity=29.6 Ci/mmol), diluted to a 5 nM concentration in PBS (2 nM final concentration). […] The final concentration of DMSO in the reactions is equal to or less than 0.1%. Total and nonspecific binding was determined in the absence and presence of […]. The total volume of each reaction is 200 μL (20 μL of diluted compounds, 80 μL of [^3H]-EMPA diluted in PBS and 100 μL of the cell suspension).
# The plates were washed 3 times by aspirating 30 ml PBS through the plates. Plates were dried in 55° C. oven for 60 min, scintillation fluid was added, and the radioactivity was counted on a Topcount (Packard).
# rat orexin 1 receptor = rat orexin 1 receptor (Rattus norvegicus, UniProt P56718); experiment: Rat orexin 1 receptor radioligand binding; conditions: HEK293 cells stably expressing rat orexin 1 receptor; apparent Ki; read-out: rOX1 Ki
# Method: After centrifugation (2K×G, 5 min at 4° C.), the supernatant was aspirated and the pellets frozen and stored at −80° C. […] Each cell pellet from a 15 cm plate was resuspended in 10 mL, stored on ice, and homogenized for 45 sec prior to addition to the reactions. Competition binding experiments in 96 well polypropylene plates were performed using [^3H]-(1-(5-(2-fluoro-phenyl)-2-methyl-thiazol-4-yl)-1-((S)-2-(5-phenyl-(1,3,4)oxadiazol-2-ylmethyl)-pyrrolidin-1-yl)-methanone) (Moraveck Corporation, specific activity=35.3 Ci/mmol), diluted to a 10 nM concentration in PBS (4 nM final). […] The final concentration of DMSO in the reactions is equal to or less than 0.1%. Total and nonspecific binding was determined in the absence and presence of 10 μM almorexant. The total volume of each reaction is 200 μL (20 μL of diluted compounds, 80 μL of [3H]-(1-(5-(2-fluoro-phenyl)-2-methyl-thiazol-4-yl)-1-((S)-2-(5-phenyl-(1,3,4)oxadiazol-2-ylmethyl)-pyrrolidin-1-yl)-methanone) diluted in PBS and 100 μL of the cell suspension). […] The plates were washed 3 times by aspirating 30 ml PBS through the plates. Plates were dried in 55° C. oven for 60 min, scintillation fluid was added, and the radioactivity was counted on a Topcount (Packard).
# Chain of human orexin 2 receptor (O43614 whole entry): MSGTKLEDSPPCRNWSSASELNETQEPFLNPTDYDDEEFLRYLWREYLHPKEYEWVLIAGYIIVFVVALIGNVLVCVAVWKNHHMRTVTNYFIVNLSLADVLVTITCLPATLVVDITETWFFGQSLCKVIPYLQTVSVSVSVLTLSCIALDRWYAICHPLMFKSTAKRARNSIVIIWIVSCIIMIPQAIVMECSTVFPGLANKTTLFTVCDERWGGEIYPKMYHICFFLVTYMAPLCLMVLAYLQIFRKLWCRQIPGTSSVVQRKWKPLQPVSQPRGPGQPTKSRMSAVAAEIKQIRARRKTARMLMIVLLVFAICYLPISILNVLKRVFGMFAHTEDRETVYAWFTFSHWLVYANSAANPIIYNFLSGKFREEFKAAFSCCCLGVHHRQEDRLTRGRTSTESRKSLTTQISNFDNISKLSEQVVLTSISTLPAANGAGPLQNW
SMILES,Ki (human orexin 2 receptor) [µM],Ki (rat orexin 1 receptor) [µM]
"Cc1ccc(-c2ncccn2)c(C(=O)N2CCC[C@@H](Nc3cc(C)nc(C(F)(F)F)n3)[C@@H]2C)c1 (racemic) [Example 7, (±)-trans-(5-methyl-2-(pyrimidin-2-yl)phenyl)(2-methyl-3-((6-methyl-2-(trifluoromethyl)pyrimidin-4-yl)amino)piperidin-1-yl)methanone]",0.228,–
"CCOc1ccc(C)nc1C(=O)N1CCC[C@@H](Nc2ccc(C(F)(F)F)cn2)[C@@H]1C (racemic) [Example 16, (±)-trans-(3-ethoxy-6-methylpyridin-2-yl)(2-methyl-3-((5-(trifluoromethyl)pyridin-2-yl)amino)piperidin-1-yl)methanone]",0.68,–
"C[C@H]1[C@H](Nc2ccc(C(F)(F)F)cn2)CCCN1C(=O)c1ncccc1-n1nccn1 (racemic) [Example 21, (±)-trans-(3-(2H-1,2,3-triazol-2-yl)pyridin-2-yl)(2-methyl-3-((5-(trifluoromethyl)pyridin-2-yl)amino)piperidin-1-yl)methanone]",0.595,–
"C[C@H]1[C@H](Nc2ccc(C(F)(F)F)cn2)CCCN1C(=O)c1cc(F)ccc1-n1nccn1 (racemic) [Example 24, (±)-trans-(5-fluoro-2-(2H-1,2,3-triazol-2-yl)phenyl)(2-methyl-3-((5-(trifluoromethyl)pyridin-2-yl)amino)piperidin-1-yl)methanone]",0.324,–
"COc1c(F)cccc1C(=O)N1CCC[C@@H](Nc2ccc(C(F)(F)F)cn2)[C@@H]1C (racemic) [Example 28, (±)-trans-(3-fluoro-2-methoxyphenyl)(2-methyl-3-((5-(trifluoromethyl)pyridin-2-yl)amino)piperidin-1-yl)methanone]",3.9,0.496
"Cc1cnc(N[C@@H]2CCCN(C(=O)c3ccccc3-n3nccn3)[C@H]2C)nc1 (racemic) [Example 31, (±)-trans-(2-(2H-1,2,3-triazol-2-yl)phenyl)(2-methyl-3-((5-methylpyrimidin-2-yl)amino)piperidin-1-yl)methanone]",0.508,–
"C[C@H]1[C@H](Nc2ccc(Cl)cn2)CCCN1C(=O)c1ccccc1-n1nccn1 (racemic) [Example 32, (±)-trans-(2-(2H-1,2,3-triazol-2-yl)phenyl)(3-((5-chloropyridin-2-yl)amino)-2-methylpiperidin-1-yl)methanone]",0.286,–
"C[C@H]1[C@H](Nc2ccccn2)CCCN1C(=O)c1ccccc1-n1nccn1 (racemic) [Example 36, (±)-trans-(2-(2H-1,2,3-triazol-2-yl)phenyl)(2-methyl-3-(pyridin-2-ylamino)piperidin-1-yl)methanone]",1.5,0.69
"C[C@H]1[C@H](Nc2ncc3ccccc3n2)CCCN1C(=O)c1ccccc1-n1nccn1 (racemic) [Example 39, (±)-trans-(2-(2H-1,2,3-triazol-2-yl)phenyl)(2-methyl-3-(quinazolin-2-ylamino)piperidin-1-yl)methanone]",0.189,–
"C[C@H]1[C@H](Nc2ncc(F)cn2)CCCN1C(=O)c1ccccc1-n1nccn1 (racemic) [Example 40, (±)-trans-(2-(2H-1,2,3-triazol-2-yl)phenyl)(3-((5-fluoropyrimidin-2-yl)amino)-2-methylpiperidin-1-yl)methanone]",0.822,0.87
"CCOc1ccccc1C(=O)N1CCC[C@@H](Nc2nc3cc(Cl)ccc3o2)[C@@H]1C (racemic) [Example 46, (±)-trans-(3-((5-chlorobenzo[d]oxazol-2-yl)amino)-2-methylpiperidin-1-yl)(2-ethoxyphenyl)methanone]",0.489,–
"COc1c(F)cccc1C(=O)N1CCC[C@@H](Nc2nc3cc(Cl)ccc3o2)[C@@H]1C (racemic) [Example 47, (±)-trans-(3-((5-chlorobenzo[d]oxazol-2-yl)amino)-2-methylpiperidin-1-yl)(3-fluoro-2-methoxyphenyl)methanone]",1.3,0.373
"C[C@H]1[C@H](Nc2cnc3ccccc3n2)CCCN1C(=O)c1ccccc1-n1nccn1 (racemic) [Example 48, (±)-trans-(2-(2H-1,2,3-triazol-2-yl)phenyl)(2-methyl-3-(quinoxalin-2-ylamino)piperidin-1-yl)methanone]",0.096,–
"COc1c(F)cccc1C(=O)N1CCC[C@@H](Nc2cnc3ccccc3n2)[C@@H]1C (racemic) [Example 50, (±)-trans-(3-fluoro-2-methoxyphenyl)(2-methyl-3-(quinoxalin-2-ylamino)piperidin-1-yl)methanone]",0.353,0.396
"C[C@H]1[C@H](Nc2nccc(-c3ccccc3)n2)CCCN1C(=O)c1ccccc1-n1nccn1 (racemic) [Example 51, (±)-trans-(2-(2H-1,2,3-triazol-2-yl)phenyl)(2-methyl-3-((4-phenylpyrimidin-2-yl)amino)piperidin-1-yl)methanone]",2.1,–
"COc1c(F)cccc1C(=O)N1CCC[C@@H](Nc2nccc(-c3ccccc3)n2)[C@@H]1C (racemic) [Example 52, (±)-trans-(3-fluoro-2-methoxyphenyl)(2-methyl-3-((4-phenylpyrimidin-2-yl)amino)piperidin-1-yl)methanone]",2.7,–
"CCOc1ccccc1C(=O)N1CCC[C@@H](Nc2nccc(-c3ccccc3)n2)[C@@H]1C (racemic) [Example 53, (±)-trans-(2-ethoxyphenyl)(2-methyl-3-((4-phenylpyrimidin-2-yl)amino)piperidin-1-yl)methanone]",0.058,–
"CCOc1ccccc1C(=O)N1CCC[C@@H](Nc2nc3cc(Cl)ccc3o2)[C@H]1C (racemic) [Example 61, (±)-cis-(3-((5-chlorobenzo[d]oxazol-2-yl)amino)-2-methylpiperidin-1-yl)(2-ethoxyphenyl)methanone]",2.5,–
"C[C@@H]1[C@H](Nc2cnc3ccccc3n2)CCCN1C(=O)c1ccccc1-n1nccn1 (racemic) [Example 63, (±)-cis-(2-(2H-1,2,3-triazol-2-yl)phenyl)(2-methyl-3-(quinoxalin-2-ylamino)piperidin-1-yl)methanone]",> 10,–
"C[C@@H]1[C@H](Nc2nccc(-c3ccccc3)n2)CCCN1C(=O)c1ccccc1-n1nccn1 (racemic) [Example 66, (±)-cis-(2-(2H-1,2,3-triazol-2-yl)phenyl)(2-methyl-3-((4-phenylpyrimidin-2-yl)amino)piperidin-1-yl)methanone]",1.8,–
"COc1c(F)cccc1C(=O)N1CCC[C@@H](Nc2nccc(-c3ccccc3)n2)[C@H]1C (racemic) [Example 67, (±)-cis-(3-fluoro-2-methoxyphenyl)(2-methyl-3-((4-phenylpyrimidin-2-yl)amino)piperidin-1-yl)methanone]",> 10,–
"CCOc1ccccc1C(=O)N1CCC[C@@H](Nc2nccc(-c3ccccc3)n2)[C@H]1C (racemic) [Example 68, (±)-cis-(2-ethoxyphenyl)(2-methyl-3-((4-phenylpyrimidin-2-yl)amino)piperidin-1-yl)methanone]",> 10,–
"C[C@H]1[C@H](Nc2ccc(Cl)cn2)CCCN1C(=O)c1ccccc1-n1nccn1 [Example 100, (2-(2H-1,2,3-triazol-2-yl)phenyl)((2S,3R)-3-((5-chloropyridin-2-yl)amino)-2-methylpiperidin-1-yl)methanone]",0.207,–

# Reference: US9115117B2, “Substituted piperidine compounds and their use as orexin receptor modulators” (JANSSEN PHARMACEUTICA NV, priority 2013, dated 2015)
